This note sets out measurements from patent US20230391766A1, “1-(2-(4-CYCLOPROPYL-1H-1,2,3-TRIAZOL-1-YL)ACETYL)-4-HYDROXY-N-(BENZYL)PYRROLIDIN E-2-CARBOXAMIDE DERIVATIVES AS VHL INHIBITORS FOR THE TREATMENT OF ANEMIA AND CANCER” (Genentech, Inc., priority 2020, published 2023).

In data set [1] the target is T1, VHL (Homo sapiens, UniProt P40337).
T1 construct: expressed in transfected cells
Put plainly: VHL nanoBRET (+ Digitonin). Format: cell-based. As to the method: (§1) The VHL NanoBRET™ Target Engagement Assay analyzes the apparent affinity of test compounds for VHL in cells by competitive displacement of a VHL NanoBRET™ tracer reversibly bound to a NanoLuc® VHL fusion protein stably expressed in the cells.
(§2) 50 nL of control compound (10 mM; parental unlabeled VHL antagonist; see structure below) and 50 nL of DMSO (negative control) were dispensed into the appropriate control wells. DMSO was backfilled to a final volume of 50 nL as required. […] Max Signal control wells consisted of DMSO only treated wells. Minimum Signal control wells contained of 10 uM parental unlabeled VHL antagonist (control compound—see structure below). […] Background Signal control wells were prepared without tracer for background correction steps.
(§3) The raw BRET ratio values were calculated by dividing the acceptor emission value (610 nm) by the donor emission value (460 nm) for each sample. To correct for background, the BRET ratio in the absence of tracer (average of no-tracer control samples) was subtracted from the BRET ratio of each sample. Raw BRET units were converted to milliBRET units (mBU) by multiplying each raw BRET value by 1,000. The normalized NanoBRET™ signal was calculated relative to the Max Signal control wells (DMSO treated control wells) and the Minimum Signal control wells. Percentage inhibition was calculated relative to the Minimum Signal control and Maximum Signal control wells. IC50 values were derived by four parameter curve fitting using the Robust method.

In the next data set the target is T2, VHL Elongin B/C complex (Homo sapiens, UniProt P40337).
T2 construct: amino acids E55-D213 of human VHL with N-terminal His6 tag; His6 (N); TEV-protease cleavage site (N); made in house; host or cells: E. coli
Put plainly: Fluorescence Polarization (FP) VHL Binding Assay. As to conditions: fluorescence polarization tracer competition; geometric mean where more than one measurement.

Data set [2] concerns the target T1, VHL. Put plainly: VHL HEK-293 BRET Assay (VHL NanoBRET Target Engagement Assay). The class given is cell-based. Particulars: for IC50: HEK 293 RT VHL-NanoLuc stable cells, 1 uM tracer, 2 hours, geometric mean where more than one measurement, read-out: VHL binding in cells (HEK293 nanoBRET); for Ratio cell permeability shift: ratio not defined. On the procedure: as §1, §2, §3

T1 sequence (P40337 whole entry): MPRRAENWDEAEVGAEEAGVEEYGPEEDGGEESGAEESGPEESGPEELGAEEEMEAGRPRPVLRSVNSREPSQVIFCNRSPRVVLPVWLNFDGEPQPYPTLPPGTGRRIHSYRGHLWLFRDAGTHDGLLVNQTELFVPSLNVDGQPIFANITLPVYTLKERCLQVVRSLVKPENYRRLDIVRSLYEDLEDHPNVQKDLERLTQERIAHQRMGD
T2 sequence (P40337 55-213): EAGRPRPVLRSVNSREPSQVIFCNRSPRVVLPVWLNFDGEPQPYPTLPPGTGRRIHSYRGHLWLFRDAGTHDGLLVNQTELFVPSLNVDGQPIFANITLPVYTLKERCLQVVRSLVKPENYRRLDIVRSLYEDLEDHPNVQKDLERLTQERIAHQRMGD
T2 sequence (Q15370 whole entry partner, the tested form may be a part): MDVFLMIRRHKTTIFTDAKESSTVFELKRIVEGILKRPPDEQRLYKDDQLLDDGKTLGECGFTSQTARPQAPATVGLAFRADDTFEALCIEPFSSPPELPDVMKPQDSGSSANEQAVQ
T2 sequence (Q15369 17-112 partner limits assumed): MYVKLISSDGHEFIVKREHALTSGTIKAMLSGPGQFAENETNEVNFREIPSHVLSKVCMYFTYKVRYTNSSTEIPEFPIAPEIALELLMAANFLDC
Procedure for VHL Elongin B/C complex: The binding of test compounds to the VHL Elongin B/C complex was measured using a fluorescence polarization tracer competition assay. The VHL/Elongin B/C protein complex used in the assay was generated as follows. The coding region for amino acids E55-D213 of human VHL with N-terminal His6 tag with a TEV-protease cleavage site was co-expressed with Elongin B (residues M1-Q118) and Elongin C (Residues M17-C112) in E. coli. The VHL/Elongin B/C complex was purified using an affinity nickel column, anion exchange HiTrap QP HP column chromatography, and gel filtration using a Superdex 75 26/60 column. The purified VHL/Elongin B/C complex was dialyzed into formulation buffer: 20 mM Bis-Tris pH7.0, 150 mM NaCl, 1 mM DTT. A VHL fluorescence polarization probe consisted of a VHL ligand coupled to carboxytetramethylrhodamine (TAMRA); (2S,4R)—N-(2-(2-(3′,6′-bis(dimethylamino)-3-oxo-3H-spiro[isobenzofuran-1,9′-xanthene]-5-carboxamido)ethoxy)-4-(4-methylthiazol-5-yl)benzyl)-4-hydroxy-1-((R)-3-methyl-2-(3-methylisoxazol-5-yl)butanoyl)pyrrolidine-2-carboxamide. […] DMSO was dispensed into wells designated for “VHL control” (without compound) wells. The “Assay Buffer” consisted of 50 mM Tris pH 8.0, 120 mM NaCl, 0.005% Nonidet P-40, and 1% DMSO (v/v). Assay Buffer containing 5.28 μM VHL Elongin B/C complex was prepared and 5 μl dispensed using a BioRapTR (Beckman Coulter) into each well of the assay plate. Assay Buffer was also dispensed into “no VHL control” wells using the same method. A “pre-assay” fluorescence measurement was made using an Infinite® M1000 (Tecan) plate reader (Excitation 530 nm, Emission 574 nm, Bandwidth 10 nm). Assay Buffer containing 3.34 nM of the VHL FP probe was prepared in Assay Buffer and 5 μl dispensed into each well of the assay plate using a BioRapTR (Beckman Coulter). The final VHL/Elongin B/C protein concentration is 2.64 nM and the final probe concentration is 1.67 nM. Assay plates were briefly centrifuged and incubated for 1 hour at room temperature. “Post-assay” fluorescence polarization measurements were made as described for the “pre-assay” fluorescence measurement. Fluorescence polarization was calculated for each sample; taking into account the “pre-assay” fluorescence measurements and subtracting the fluorescence signal of the compound/VHL only (“pre-assay”) measurements from the “post-assay” fluorescence polarization measurements, for each plane of polarization. The data were analyzed using Genedata Screener software and normalized to the “no VHL control” and “VHL control” (without compound). IC50 values were calculated using a four parameter curve fit (Robust method).

At VHL [1], `CC(C)(C)[C@@H](C(=O)N1C[C@H](O)C[C@H]1C(=O)N[C@H](Cc1ccc(-c2ccccc2)cc1)C(N)=O)n1cc(C2CC2)nn1` [Example S3, (2S,4R)—N—((R)-3-([1,1′-biphenyl]-4-yl)-1-amino-1-oxopropan-2-yl)-1-((S)-2-(4-cyclopropyl-JH-1,2,3-triazol-1-yl)-3,3-dimethylbutanoyl)-4-hydroxypyrrolidine-2-carboxamide] showed an EC50 of 140 nM. Moreover, the IC50 on VHL Elongin B/C complex worked out at 150 nM. Also, on VHL [2], the IC50 is 150 nM and the “Ratio cell permeability shift” value was 0.97.

At VHL [1], `Cc1ncsc1-c1ccc(CNC(=O)[C@@H]2C[C@@H](O)CN2C(=O)[C@@H](n2cc(Cc3ccccc3)nn2)C(C)(C)C)cc1` [Example S27, (2S,4R)-1-((S)-2-(4-benzyl-1H-1,2,3-triazol-1-yl)-3,3-dimethylbutanoyl)-4-hydroxy-N-(4-(4-methylthiazol-5-yl)benzyl)pyrrolidine-2-carboxamide] showed a 50% effective concentration (EC50) of 20 nM. In addition, the IC50 at VHL Elongin B/C complex came out at 20 nM. Moreover, at VHL [2], the IC50 was 20 nM and the “Ratio cell permeability shift” value amounted to 0.88.

The molecule `Cc1ncsc1-c1ccc(CNC(=O)[C@@H]2C[C@@H](O)CN2C(=O)[C@@H](n2cc(C3CC3)nn2)C(C)(C)C)cc1` [Example S24, (2S,4R)-1-((S)-2-(4-cyclopropyl-1H-1,2,3-triazol-1-yl)-3,3-dimethylbutanoyl)-4-hydroxy-N-(4-(4-methylthiazol-5-yl)benzyl)pyrrolidine-2-carboxamide] yielded an EC50 at VHL [1] of 10 nM. In addition, the IC50 at VHL Elongin B/C complex was 10 nM. Moreover, on VHL [2], the IC50 amounted to 10 nM and the “Ratio cell permeability shift” value worked out at 1.22.

For `CC(=O)NCCOCc1cn([C@H](C(=O)N2C[C@H](O)C[C@H]2C(=O)N[C@H](Cc2ccc(-c3ccccc3)cc2)C(N)=O)C(C)(C)C)nn1` [Example S14, (2S,4R)—N—((R)-3-([1,1′-biphenyl]-4-yl)-1-amino-1-oxopropan-2-yl)-1-((S)-2-(4-((2-acetamidoethoxy)methyl)-1H-1,2,3-triazol-1-yl)-3,3-dimethylbutanoyl)-4-hydroxypyrrolidine-2-carboxamide], the IC50 at VHL Elongin B/C complex came to 80 nM; on VHL [2], 20700 nM. Moreover, the “Ratio cell permeability shift” value at VHL [2] was 264.37.

`C#CC1(c2cn([C@H](C(=O)N3C[C@H](O)C[C@H]3C(=O)NCc3ccc(-c4scnc4C)cc3)C(C)(C)C)nn2)CC1` [Compound 30, (2S,4R)-1-((S)-2-(4-(1-ethynylcyclopropyl)-1H-1,2,3-triazol-1-yl)-3,3-dimethylbutanoyl)-4-hydroxy-N-(4-(4-methylthiazol-5-yl)benzyl)pyrrolidine-2-carboxamide]: a half-maximal effect at VHL [1] (EC50) was put at 20 nM. Besides, at VHL [2], the IC50 is 20 nM and the “Ratio cell permeability shift” value turned out to be 1.15.

The molecule `CC(C)(C)[C@@H](C(=O)N1C[C@H](O)C[C@H]1C(=O)N[C@H](Cc1ccc(-c2ccccc2)cc1)C(N)=O)n1cc(C(N)=O)nn1` [Example S16, 1-((S)-1-((2S,4R)-2-(((R)-3-([1,1′-biphenyl]-4-yl)-1-amino-1-oxopropan-2-yl)carbamoyl)-4-hydroxypyrrolidin-1-yl)-3,3-dimethyl-1-oxobutan-2-yl)-1H-1,2,3-triazole-4-carboxamide] showed a half-maximal effective concentration (EC50) on VHL [1] of 400 nM. On VHL [2], the IC50 stood at 3310 nM and the “Ratio cell permeability shift” value worked out at 8.30.

Take `CC(C)[C@@H](C(=O)N1C[C@H](O)C[C@H]1C(=O)N[C@H](Cc1ccc(-c2ccccc2)cc1)C(N)=O)n1cc(-c2cccs2)nn1` [Example S38, (2S,4R)—N—((R)-3-([1,1′-biphenyl]-4-yl)-1-amino-1-oxopropan-2-yl)-4-hydroxy-1-((S)-3-methyl-2-(4-(thiophen-2-yl)-1H-1,2,3-triazol-1-yl)butanoyl)pyrrolidine-2-carboxamide]: it took 170 nM to reach a half-maximal effect at VHL [1] (EC50). On VHL [2], the IC50 was 190 nM and the “Ratio cell permeability shift” value was found to be 1.12.
